Assay results: ChEMBL document CHEMBL3603748, “Design of HIV-1 Protease Inhibitors with Amino-bis-tetrahydrofuran Derivatives as P2-Ligands to Enhance Backbone-Binding Interactions: Synthesis, Biological Evaluation, and Protein-Ligand X-ray Studies” (J Med Chem, 2015)

How the values were obtained:
Protease = Protease (Human immunodeficiency virus 1, UniProt Q9YQ12); assay: Inhibition of HIV1 protease
[1] = system: Human immunodeficiency virus 1; assay: Antiviral activity against HIV1 LAI infected in human MT2 cells; assay type: functional, organism-based; settings: Human immunodeficiency virus 1, LAI
[2] = system: Human immunodeficiency virus 1; assay: Antiviral activity against HIV1 NL4-3 infected in human MT4 cells by XTT assay; assay type: functional, organism-based; settings: Human immunodeficiency virus 1, NL4-3, MT4
[3] = system: Human immunodeficiency virus 1; assay: Antiviral activity against darunavir-resistant HIV1 P20 infected in human MT4 cells by XTT assay; assay type: functional, organism-based; settings: Human immunodeficiency virus 1, P20, MT4
[4] = system: Human immunodeficiency virus 1; assay: Resistance index, ratio of EC50 for darunavir-resistant HIV1 P20 infected in human MT4 cells by XTT assay to EC50 for HIV1 NL4-3 infected in human MT4 cells by XTT assay; assay type: functional
[5] = system: Human immunodeficiency virus 1; assay: Antiviral activity against darunavir-resistant HIV1 P10 infected in human MT4 cells by XTT assay; assay type: functional, organism-based; settings: Human immunodeficiency virus 1, P10, MT4
[6] = system: Human immunodeficiency virus 1; assay: Antiviral activity against darunavir-resistant HIV1 P51 infected in human MT4 cells by XTT assay; assay type: functional, organism-based; settings: Human immunodeficiency virus 1, P51, MT4

Sequence of Protease (Q9YQ12 whole entry): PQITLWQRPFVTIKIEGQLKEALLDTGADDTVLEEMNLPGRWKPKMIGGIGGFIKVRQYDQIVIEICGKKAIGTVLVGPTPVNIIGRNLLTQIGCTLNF

| Structure (SMILES) | Ki (Protease) | IC50 [1] | EC50 [2] | EC50 [3] | Ratio EC50 [4] | EC50 [5] | EC50 [6] |
| --- | --- | --- | --- | --- | --- | --- | --- |
| CN[C@H]1CO[C@@H]2OC[C@H](OC(=O)N[C@@H](Cc3ccccc3)[C@H](O)CN(CC(C)C)S(=O)(=O)c3ccc(OC)cc3)[C@@H]21 | 0.0015 nM | 35 nM | 29 nM | 32 nM | 1.1 | – | – |
| COc1ccc(S(=O)(=O)N(CC(C)C)C[C@@H](O)[C@H](Cc2ccccc2)NC(=O)O[C@H]2CO[C@H]3OC[C@H](N(C)C(=O)OC(C)(C)C)[C@H]32)cc1 | 0.012 nM | 37 nM | – | – | – | – | – |
| COc1ccc(S(=O)(=O)N(CC(C)C)C[C@@H](O)[C@H](Cc2ccccc2)NC(=O)O[C@H]2CO[C@H]3OC[C@H](NC(C)C)[C@H]32)cc1 | 0.0063 nM | 0.34 nM | 1 nM | 24 nM | 23 | 21 nM | 260 nM |
| COc1ccc(S(=O)(=O)N(CC(C)C)C[C@@H](O)[C@H](Cc2ccccc2)NC(=O)O[C@H]2CO[C@H]3OC[C@H](NC(=O)OC(C)(C)C)[C@H]32)cc1 | 0.014 nM | 4.4 nM | – | – | – | – | – |
| CN[C@H]1CO[C@@H]2OC[C@H](OC(=O)N[C@@H](Cc3ccccc3)[C@H](O)CN(CC(C)C)S(=O)(=O)c3ccc(N)cc3)[C@@H]21 | 0.0099 nM | 480 nM | – | – | – | – | – |
| COC(=O)N[C@H]1CO[C@@H]2OC[C@H](OC(=O)N[C@@H](Cc3ccccc3)[C@H](O)CN(CC(C)C)S(=O)(=O)c3ccc(OC)cc3)[C@@H]21 | 0.024 nM | 3.7 nM | – | – | – | – | – |
| COc1ccc(S(=O)(=O)N(CC(C)C)C[C@@H](O)[C@H](Cc2ccccc2)NC(=O)O[C@H]2CO[C@H]3OC[C@H](N)[C@H]32)cc1 | 0.53 nM | 48 nM | – | – | – | – | – |
| COc1ccc(S(=O)(=O)N(CC(C)C)C[C@@H](O)[C@H](Cc2ccccc2)NC(=O)O[C@H]2CO[C@H]3OC[C@H](N(C)C)[C@H]32)cc1 | 0.014 nM | 4.4 nM | – | – | – | – | – |
| CCN(CC)[C@H]1CO[C@@H]2OC[C@H](OC(=O)N[C@@H](Cc3ccccc3)[C@H](O)CN(CC(C)C)S(=O)(=O)c3ccc(OC)cc3)[C@@H]21 | 0.014 nM | 7.2 nM | – | – | – | – | – |
| COc1ccc(S(=O)(=O)N(CC(C)C)C[C@@H](O)[C@H](Cc2ccccc2)NC(=O)O[C@H]2CO[C@H]3OC[C@H](N=[N+]=[N-])[C@H]32)cc1 | 0.0039 nM | 4.4 nM | – | – | – | – | – |
| CCN[C@H]1CO[C@@H]2OC[C@H](OC(=O)N[C@@H](Cc3ccccc3)[C@H](O)CN(CC(C)C)S(=O)(=O)c3ccc(OC)cc3)[C@@H]21 | 0.027 nM | 22 nM | 15 nM | – | – | 39 nM | 230 nM |
| CCN(C(=O)OC(C)(C)C)[C@H]1CO[C@@H]2OC[C@H](OC(=O)N[C@@H](Cc3ccccc3)[C@H](O)CN(CC(C)C)S(=O)(=O)c3ccc(OC)cc3)[C@@H]21 | 0.048 nM | – | – | – | – | – | – |
